Assay results from patent publication US20220265683A1, “HALOGENATED SALICYLANILIDES FOR THE TREATMENT OF DERMATITIS” (priority 2018, published 2022).
Marks after values point to notes of the source that are not given here.

Legend:
[1] = test system: skin barrier and inflammation biomarkers in lesional skin biopsies; experiment: Biomarker gene expression in lesional skin biopsies by qRT-PCR (TLDA), Example 3; format: in vivo, human; settings: only responder population, 3 weeks
Protocol: (§1) Patients received topical applications of a niclosamide 2% composition and vehicle once daily for 3 weeks, followed by a 1-week follow up period. Topical niclosamide 2% and vehicle was applied on two separate target lesions of atopic dermatitis (lesions of at least 3×3-cm that are at least 2 cm apart, excluding the face, scalp, genitals, hands, and feet). The application areas (5×5-cm) were randomized (1:1) to once daily application of niclosamide 2% or vehicle at 5 mg/cm^2 without occlusion 6 days per week. Patients came to the study site for all study product application for a total of 3 weeks.
(§2) Three skin biopsies were collected in all patients (one from lesional skin at baseline, pre-dosing at Day 1, and two from lesional skin at Day 22 (one where topical niclosamide 2% had been applied and one where the vehicle had been applied). The lesional skin biopsies were analysed for skin thickness and inflammation biomarkers.
Skin barrier and inflammation biomarker levels were determined from lesional skin biopsies from application areas.
(§3) The skin biopsy samples were analysed by immunohistochemistry (IHC), and by gene expression studies by RT-PCR using TaqMan Low Density Array (TLDA), and by microarray using Affymetrix U133A Plus 2. The immunohistochemistry (IHC) was used to analyse cell biomarkers. The methodologies as disclosed by Guttman-Yassky et al, “Major differences in inflammatory dendritic cells and their products distinguish atopic dermatitis from psoriasis”, The Journal of Allergy and Clinical Immunology, vol. 119, issue 5, pages 1210-1217, 2007, were followed except for that U133A Plus 2-set Gene Chip probe arrays was used instead of U95A-set Gene Chip probe arrays.
Expression values (threshold cycle [Ct]) were normalized to Rplp0 by negatively transforming the Ct values to −dCt (IL17A was normalized to hARP, as analysed by qPCR). The undetected −dCt values were estimated for each gene as the 20% of the minimum across all samples. qRT-PCR expression data were modelled using a mixed effect model with Visit and Treatment Area as a fixed effect and a random intercept for each patient. This formulation intrinsically models the within patient correlation structure as in the case of a paired t-test. This approach introduces less bias than restricting the analysis for those patients who completed the study. Contrasts were used to estimate the fold changes with treatment within each treatment group and conduct hypothesis testing.

[2] = test system: CD3, langerin, CD11c and FceR1 cells in skin biopsies; experiment: Immunohistochemistry (IHC) of cell markers in lesional skin biopsies, Example 3; format: in vivo, human; settings: Day 22, 2% topical
Protocol: as §2, §3

[3] = test system: dendritic cells; settings: in-vitro; cited from earlier work
[4] = test system: skin barrier and inflammation biomarkers in lesional skin biopsies; experiment: Biomarker gene expression in lesional skin biopsies by microarray (Affymetrix U133A Plus 2), Example 3; format: in vivo, human
Protocol: as §1, §2, §3
Experimental design: The hybridization strategy was in concordance with experimental design principles, by for example keeping all samples from the same patient in the same date, and always include samples from every treatment arm/group.
Quality Control and Pre-processing: Quality control of microarray chips were carried out using standard QC metrics and R package microarray Quality Control. Expression measures were obtained using GCRMA algorithm (Wu & Irizarry, 2004). Several visual and modelling techniques were used to elucidate if batch effect existed. Principal Component analysis plots were used to detect if any evident batch effect existed. If such batch effects were found, they were adjusted using Combat, an empirical Bayes method for adjusting data for batch effects that is robust to outliers in small sample sizes (Johnson, Li, & Rabinovic, 2007). The implementation of Combat by package sva was used.
Probe-sets with at least 5% samples with expression larger than 3 (in log 2-scale) were kept for further analysis. Expression values were modelled using mixed-effect models with fixed factors Visit and Treatment Area and a random effect for each patient. Fold changes for the comparisons of interest were estimated and hypothesis testing was conducted on such comparisons using contrasts under the general framework for linear models in limma package. The inter-replicate correlation was computed by Duplicate Correlation function and the linear model was estimated by ImFit. P-values from the moderated (paired) t-test were adjusted for multiple hypotheses using the Benjamini-Hochberg procedure, which controls for FDR.

[5] = test system: biomarkers in lesional AD skin; settings: 4 weeks, qRT-PCR; cited from earlier work
[6] = microarray fold change, Day 22, sign as niclosamide vs vehicle
[7] = only responder population, 3 weeks, Microarray

O=C(Nc1ccc([N+](=O)[O-])cc1Cl)c1cc(Cl)ccc1O [Niclosamide, niclosamide]
CCL17, Niclosamide 2% qd vs. predose [1]: −3.42^d | CCL18, Niclosamide 2% qd vs. predose [1]: −3.46^d | CCL20, Niclosamide 2% qd vs. predose [1]: −2^d | CCL22, Niclosamide 2% qd vs. predose [1]: −2.56^d | CXCL1, Niclosamide 2% qd vs. predose [1]: −3.82^d | CXCL2, Niclosamide 2% qd vs. predose [1]: −2.11^d | CXCL10, Niclosamide 2% qd vs. predose [1]: −1.96^d | DEFB4B, Niclosamide 2% qd vs. predose [1]: −7.18^c | FLG, Niclosamide 2% qd vs. predose [1]: 2.06^e | IL5, Niclosamide 2% qd vs. predose [1]: −3.69^d | IL10, Niclosamide 2% qd vs. predose [1]: −2.16^d | IL13, Niclosamide 2% qd vs. predose [1]: −3.18^d | IL17A, Niclosamide 2% qd vs. predose [1]: −3.12^d | IL17C, Niclosamide 2% qd vs. predose [1]: −3.91^d | IL19, Niclosamide 2% qd vs. predose [1]: −6.65^c | K16/KRT16, Niclosamide 2% qd vs. predose [1]: −8.46^c | LOR, Niclosamide 2% qd vs. predose [1]: 2.84^f | MMP12, Niclosamide 2% qd vs. predose [1]: −5.12^c | PI3, Niclosamide 2% qd vs. predose [1]: −11.2^b | S100A12, Niclosamide 2% qd vs. predose [1]: −10.5^b | inflammatory cells (dendritic cells: CD11c, FceR1 in epidermis; Langerhans cells: langerin/CD207) compared to baseline [2]: Significant reductions in inflammatory cells | total amount of T cells (dermis and epidermis) compared to baseline [2]: No significant change | LPS-induced dendritic cell maturation, cytokine, costimulatory and MHC molecule expression [3]: inhibitory action | CXCL1, 2% niclosamide compared to vehicle [4, 6]: −2.10 | S100A12, 2% niclosamide compared to vehicle [4, 6]: −2.30 | CD3d, Niclosamide 2% qd vs. predose [4, 7]: −2.2^d | IL4R, Niclosamide 2% qd vs. predose [4, 7]: −2.19^d | IL15, Niclosamide 2% qd vs. predose [4, 7]: −1.59^d | IL22, Niclosamide 2% qd vs. predose [4, 7]: −2.1^d | JAK3, Niclosamide 2% qd vs. predose [4, 7]: −1.86^d | S100A8, Niclosamide 2% qd vs. predose [4, 7]: −1.82^d | S100A9, Niclosamide 2% qd vs. predose [4, 7]: −5.15^d | STAT3, Niclosamide 2% qd vs. predose [4, 7]: −1.54^d

Dupilumab: inhibits interleukin-4 and interleukin-13 signalling by binding to interleukin-4 receptor α
CCL17, Dupilumab 300 mg vs. predose [5]: −9.2^b | CCL18, Dupilumab 300 mg vs. predose [5]: −7.6^c | CCL22, Dupilumab 300 mg vs. predose [5]: −2.1^d | CCL26, Dupilumab 300 mg vs. predose [5]: −6.3^c | K16/KRT16, Dupilumab 300 mg vs. predose [5]: −10.7^b | MMP12, Dupilumab 300 mg vs. predose [5]: −14^b | S100A8, Dupilumab 300 mg vs. predose [5]: −3^d | S100A12, Dupilumab 300 mg vs. predose [5]: −10.4^b
